How the values were obtained:
CHO-K1/GLUT4 cells = test: Quantification of GLUT4 translocation ratio (IN Cell Analyzer 1000); assay type: cell-based
Description: CHO-K1 cells are transfected with pEGFPN1-GLUT4-myc plasmid using Lipofectamine 2000, and subsequently screened with G418 (800 µg/ml). The CHO-K1/GLUT4 stable cell line is obtained by picking up clones.
CHO-K1/GLUT4 cells are seeded into 96-well plate. After cells reached 100% confluence, F12 medium is changed to 3T3-L1 medium and incubated for 2 days. 8-hour serum starvation later, cells are stimulated with insulin for 5 minutes, fixed with 3.7% formaldehyde for 15 minutes, and labeled with anti-myc monoclonal antibody and secondary antibody (Alexa Fluor 647 conjuncted anti-mouse antibody). Fluorescence pictures were obtained by IN Cell Analyzer 1000 Instrument (GE Healthcare) with the same exposure time. The basic unit comprises several core components including a Nikon microscope and a high-resolution CCD camera. Membrane-located GLUT4 is represented by the intensity of red fluorescence (Alex fluor 647) and normalized by the intensity of green fluorescence (GLUT4-EGFP), which is assigned to the total GLUT4 [46].

PPARγ:RXRα = molecular target: T1, PPARγ:RXRα (Homo sapiens, UniProt P19793+P37231); test: Transient transfection luciferase assay in HEK293 cells (PPRE); assay type: cell-based; conditions: HEK293, 24 h
T1 construct: expressed in transfected cells; host or cells: HEK293
Description: (§1) HEK293 cells are transiently transfected by Lipo2000 respectively with RXRα, PPARγ, FXR, and LXRα plasmids plus pGL3-RXRE luciferase vector and renilla luciferase vector for 5 hours. Cells are then incubated with indicated concentrations of compounds for another 24 h and finally lysed. Luciferase activities are measured using Dual Luciferase Assay System kit. Rut dose-dependently activates (a) RXRα:RXRα and (b) PPARγ:RXRα activities. Rut has no effects on (c) FXR: RXRα and (d) LXRα:RXRα activities. Data are presented as means ± s.e.m (*P<0.05, **P<0.01) from three independent experiments.
(§2) HEK293 cells are transfected with luciferase reporter plus Renilla luciferase vector and other plasmids if needed for 5 hours, and cells are then incubated with indicated concentrations of compounds for another 24 h. Finally cells are lysed and luciferase activities are measured using Dual Luciferase Assay System kit. The results are presented as the fold activation relative to untreated cells after normalization with Renilla luciferase values. Each experiment is repeated at least twice, with each sample analyzed in triplicates.

[1] = test system: IR (Tyr1146), AKT (Ser473) in 3T3-L1 adipocytes; test: Western blot of IR and AKT phosphorylation; assay type: cell-based; conditions: insulin 17 nM, 5 minutes
Description: (§3) Insulin sensitizing effects of Rut are investigated in CHO-K1 and 3T3-L1 adipocytes. After incubation with compounds in serum-free medium for indicated time, cells are stimulated with insulin (170 nM for CHO-K1 cells and 17 nM for 3T3-L1 adipocytes) for 5 min, and the stimulation is stopped by ice-cold PBS. The effect of Rut on insulin signaling is also investigated in CHO-K1 cells. In the assay, cells are stimulated with Rut (20 µM, 8 h) or insulin (170 nM, 5 min), and then lysed on ice. GLUT4 protein level is studied in the differentiated 3T3-L1 adipocytes (the 10th day after MDI stimulation). After incubation of compounds for 48 h, cells are lysed on ice. The proteins are resolved by SDS-polyacrylamide gel electrophoresis and electro-transferred to polyvinylidene difluoride membranes. The membrane is blocked by 5% skimmed milk and incubated with antibodies. Proteins are visualized by the ECL detecting system.

[2] = test system: IR (Tyr1146), AKT (Ser473) in CHO-K1 cells; test: Western blot of IR and AKT phosphorylation; assay type: cell-based; conditions: insulin 170 nM, 5 minutes, different doses of Rut
Description: as §3

LXRα:RXRα = molecular target: T2, LXRα:RXRα (Homo sapiens, UniProt P19793+Q13133); test: Transient transfection luciferase assay in HEK293 cells (LXRE); assay type: cell-based; conditions: HEK293, 24 h
T2 construct: expressed in transfected cells; host or cells: HEK293
Description: as §1, §2

FXR: RXRα = molecular target: T3, FXR: RXRα (Homo sapiens, UniProt P19793+Q96RI1); test: Transient transfection luciferase assay in HEK293 cells (FXRE); assay type: cell-based; conditions: HEK293, 24 h
T3 construct: expressed in transfected cells; host or cells: HEK293
Description: as §1, §2

[3] = molecular target: T4, RXRα-LBD/SRC1_613–773 interaction (Homo sapiens, UniProt P19793); test: SPR SRC1 recruitment assay; assay type: binding; conditions: 1 µM RXRα-LBD incubated with compound 1 hour
T4 construct: His-tag (N); made in house; host or cells: E. coli BL21 (DE3)
Description: Binding affinities of Rut towards proteins are analyzed using SPR technology based Biacore 3000 instrument (GE Healthcare). In the assay, proteins are immobilized to CM5 chips using a standard amine-coupling procedure (Biacore manual). The proteins to be covalently bound to the chips are diluted in 10 mM sodium acetate buffer (pH4.5) to a final concentration of 0.10 mg/ml. Before experiments, baseline is equilibrated with a continuous flow of running buffer (10 mM HEPES, 150 mM NaCl, 3 mM EDTA, and 0.005% (v/v) surfactant P20, pH7.4) for 2 hours. Subsequently, Rut with a gradient of concentrations is injected to the channels at a flow rate of 20 µL/min for 60 seconds, followed by disassociation for 120 seconds. The 1∶1 Langmuir binding fitting model in BIAevaluation software version 3.1 (Biacore) is used to determine the equilibrium dissociation constants (K Ds) of compounds. […] Different concentrations of PPARγ-LBD or RXRα-LBD are injected to the channel at a flow rate of 20 µL/min for 60 s, followed by disassociation for 120 s.

PTP1B (D48A) = molecular target: T5, PTP1B (D48A) (Homo sapiens, UniProt P18031, D48A); test: PTP enzyme inhibition assay, D48A mutant; assay type: biochemical
T5 construct: pGEX4T-1-PTP1B1–321; GST (N); made in house; host or cells: E. coli (BL21 (DE3) stated for the wild-type plasmid)
Description: The plasmid pGEX4T1-PTP1B (D48A) is generated by site-directed mutagenesis with pGEX4T1-PTP1B (WT) as template. The primer pairs are sense: 5′-[…]-3′ and antisense: 5′-[…]-3′.
The enzymatic activities of the recombinant PTPs are measured at 25°C using pNPP as substrate. The initial velocities of enzymatic reactions are determined by continuously measuring the absorbance at 405 nm every 15 s using a microplate spectrophotometer (Bio-Rad). […] To determine the inhibition type, each concentration of Rut (0, 50 and 75 µM) is incubated with PTP1B (0.3 µM) in reaction buffer (50 mM HEPES, pH7.0, 1 mM EDTA, and 100 mM NaCl) for 10 min and the reactions are initiated by different concentrations of pNPP (0.5–10 mM). The inhibition type is determined using double-reciprocal plots. In determination of the selectivity of Rut against PTPs, the result is referred as no inhibition when 100 µM Rut inhibits no enzyme activity. The same reaction systems are designed for all PTPs including PTP1B.

T4 sequence (P19793 227-458 limits assumed): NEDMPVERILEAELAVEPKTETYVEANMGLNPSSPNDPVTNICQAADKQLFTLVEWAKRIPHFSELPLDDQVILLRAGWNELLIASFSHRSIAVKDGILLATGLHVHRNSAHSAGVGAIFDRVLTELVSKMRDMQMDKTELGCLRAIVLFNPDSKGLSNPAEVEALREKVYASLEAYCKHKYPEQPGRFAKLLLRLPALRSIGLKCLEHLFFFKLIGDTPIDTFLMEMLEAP
T4 sequence (Q15788 613-773 partner limits assumed): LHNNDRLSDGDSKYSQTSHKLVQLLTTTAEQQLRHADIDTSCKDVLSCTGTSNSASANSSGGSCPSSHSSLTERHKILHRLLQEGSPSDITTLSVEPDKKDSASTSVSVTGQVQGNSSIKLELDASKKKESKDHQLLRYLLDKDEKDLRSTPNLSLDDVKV
T5 sequence (P18031 1-321 D48A): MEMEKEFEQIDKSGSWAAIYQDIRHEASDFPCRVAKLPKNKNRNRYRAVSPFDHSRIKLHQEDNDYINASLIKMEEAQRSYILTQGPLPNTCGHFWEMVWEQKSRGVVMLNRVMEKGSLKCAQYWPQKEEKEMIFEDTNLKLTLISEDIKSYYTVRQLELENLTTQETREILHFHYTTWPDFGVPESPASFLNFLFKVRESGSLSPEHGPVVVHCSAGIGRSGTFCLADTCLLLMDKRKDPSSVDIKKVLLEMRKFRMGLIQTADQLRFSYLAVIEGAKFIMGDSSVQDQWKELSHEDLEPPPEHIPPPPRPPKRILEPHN
T3 sequence (Q96RI1 whole entry): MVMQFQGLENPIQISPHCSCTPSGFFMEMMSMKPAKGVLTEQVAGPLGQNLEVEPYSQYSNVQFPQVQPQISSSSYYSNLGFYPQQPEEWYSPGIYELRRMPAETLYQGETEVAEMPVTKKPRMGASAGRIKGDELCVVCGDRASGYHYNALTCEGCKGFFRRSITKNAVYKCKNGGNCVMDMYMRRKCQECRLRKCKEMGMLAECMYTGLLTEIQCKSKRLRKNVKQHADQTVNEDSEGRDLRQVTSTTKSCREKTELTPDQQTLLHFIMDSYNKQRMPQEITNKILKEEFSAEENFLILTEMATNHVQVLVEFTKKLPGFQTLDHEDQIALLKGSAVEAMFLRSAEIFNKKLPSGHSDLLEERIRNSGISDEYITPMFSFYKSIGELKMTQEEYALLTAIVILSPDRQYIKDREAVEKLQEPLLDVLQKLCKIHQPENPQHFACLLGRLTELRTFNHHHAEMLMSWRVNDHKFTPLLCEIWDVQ
T3 sequence (P19793 whole entry): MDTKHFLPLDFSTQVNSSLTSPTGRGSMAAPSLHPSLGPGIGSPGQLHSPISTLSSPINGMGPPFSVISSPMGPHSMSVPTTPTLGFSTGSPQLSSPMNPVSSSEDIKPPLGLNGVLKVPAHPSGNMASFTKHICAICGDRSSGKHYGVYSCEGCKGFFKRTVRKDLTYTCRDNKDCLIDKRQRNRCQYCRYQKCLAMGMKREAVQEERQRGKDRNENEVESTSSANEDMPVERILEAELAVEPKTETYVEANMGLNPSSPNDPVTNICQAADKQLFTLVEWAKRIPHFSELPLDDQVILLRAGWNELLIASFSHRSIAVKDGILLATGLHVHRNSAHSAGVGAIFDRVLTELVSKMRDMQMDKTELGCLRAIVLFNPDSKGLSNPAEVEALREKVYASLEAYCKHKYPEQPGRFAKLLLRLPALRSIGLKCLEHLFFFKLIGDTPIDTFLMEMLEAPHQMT
T1 sequence (P37231 whole entry): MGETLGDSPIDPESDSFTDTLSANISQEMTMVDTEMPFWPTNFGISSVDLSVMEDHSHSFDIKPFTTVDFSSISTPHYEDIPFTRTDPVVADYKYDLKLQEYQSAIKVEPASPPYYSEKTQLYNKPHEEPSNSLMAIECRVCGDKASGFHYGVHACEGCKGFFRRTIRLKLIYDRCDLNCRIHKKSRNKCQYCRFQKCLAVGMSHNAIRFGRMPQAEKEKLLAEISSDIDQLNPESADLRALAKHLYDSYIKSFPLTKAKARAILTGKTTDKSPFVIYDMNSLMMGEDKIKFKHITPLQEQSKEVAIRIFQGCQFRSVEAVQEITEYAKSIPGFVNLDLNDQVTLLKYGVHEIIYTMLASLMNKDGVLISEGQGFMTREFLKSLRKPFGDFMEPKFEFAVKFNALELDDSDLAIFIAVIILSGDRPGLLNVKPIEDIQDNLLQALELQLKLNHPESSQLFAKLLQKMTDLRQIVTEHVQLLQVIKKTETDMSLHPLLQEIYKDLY
T1 sequence (P19793 whole entry): as the sequence (P19793 whole entry) above
T2 sequence (Q13133 whole entry): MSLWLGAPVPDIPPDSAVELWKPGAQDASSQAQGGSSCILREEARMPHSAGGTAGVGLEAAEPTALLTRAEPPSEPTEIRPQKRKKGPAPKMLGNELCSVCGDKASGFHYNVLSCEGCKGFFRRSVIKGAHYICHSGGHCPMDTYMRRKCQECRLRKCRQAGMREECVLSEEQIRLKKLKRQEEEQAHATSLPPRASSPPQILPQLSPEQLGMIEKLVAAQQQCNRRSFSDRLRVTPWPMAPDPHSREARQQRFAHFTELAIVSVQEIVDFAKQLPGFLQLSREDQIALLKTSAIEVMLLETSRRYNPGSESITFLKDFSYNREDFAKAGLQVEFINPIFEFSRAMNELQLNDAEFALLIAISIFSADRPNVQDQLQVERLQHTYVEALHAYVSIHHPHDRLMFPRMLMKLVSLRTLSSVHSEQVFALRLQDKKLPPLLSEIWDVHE
T2 sequence (P19793 whole entry): as the sequence (P19793 whole entry) above

C=CC(C)(C)c1cc2cc3c(cc2oc1=O)O[C@H](C(C)(C)OC(C)=O)C3 [(+)-Rutamarin]
EC50 (CHO-K1/GLUT4 cells; Cricetulus griseus, CHO-K1, cells pre-treated with Rut 8 hours, then insulin (170 nM) 5 minutes, read-out: EC50, enhancement of insulin-induced GLUT4 translocation): 7 µM | basal GLUT4 translocation without insulin induction (CHO-K1/GLUT4 cells; Rut 20 µM, 8 h): induces basal GLUT4 translocation | effect on pervanadate-stimulated GLUT4 translocation (CHO-K1/GLUT4 cells; Rut 20 µM, pervanadate 100 µM): cannot enhance | enhancement on insulin-induced GLUT4 translocation compared with compound-2 and pervanadate (CHO-K1/GLUT4 cells; insulin 170 nM, C2 10 µM, pervanadate 100 µM, Rut 5, 10, 20 µM): even stronger | activity of PPAR-response element (PPRE) (PPARγ:RXRα): dose-dependently enhance | insulin-stimulated phosphorylation levels of IR and AKT [1]: largely increased | insulin-induced phosphorylation of IR and AKT [2]: enhances | activity of LXR-response element (LXRE) (LXRα:RXRα): without influencing | activity of FXR-response element (FXRE) (FXR: RXRα): without influencing | effect on interaction between RXRα-LBD and SRC1 [3]: efficiently enhances | IC50 (PTP1B (D48A)): 14.8 µM

Source: paper PMC3288053 (PLoS ONE, 2012)
